Laboratory results reported in publication PMC2845980 (Bioorganic & medicinal chemistry, 2010).
Like-named read-outs stand apart in the source and are kept apart here. Values belong to the compound of their own block, whether it stands above or below them.

What was measured:
tgDHFR = tgDHFR (Toxoplasma gondii, UniProt Q07422); assay: Spectrophotometric DHFR inhibition assay, T. gondii enzyme; type: biochemical; details: IC50 rlDHFR / IC50 tgDHFR
Solubility = type: physicochemical; details: qualitative statement
[1] = first study, i.p. 50 mg/kg/day, mouse
[2] = second study, i.p. 50 mg/kg/day, mouse

tgDHFR, sequence (Q07422 whole entry): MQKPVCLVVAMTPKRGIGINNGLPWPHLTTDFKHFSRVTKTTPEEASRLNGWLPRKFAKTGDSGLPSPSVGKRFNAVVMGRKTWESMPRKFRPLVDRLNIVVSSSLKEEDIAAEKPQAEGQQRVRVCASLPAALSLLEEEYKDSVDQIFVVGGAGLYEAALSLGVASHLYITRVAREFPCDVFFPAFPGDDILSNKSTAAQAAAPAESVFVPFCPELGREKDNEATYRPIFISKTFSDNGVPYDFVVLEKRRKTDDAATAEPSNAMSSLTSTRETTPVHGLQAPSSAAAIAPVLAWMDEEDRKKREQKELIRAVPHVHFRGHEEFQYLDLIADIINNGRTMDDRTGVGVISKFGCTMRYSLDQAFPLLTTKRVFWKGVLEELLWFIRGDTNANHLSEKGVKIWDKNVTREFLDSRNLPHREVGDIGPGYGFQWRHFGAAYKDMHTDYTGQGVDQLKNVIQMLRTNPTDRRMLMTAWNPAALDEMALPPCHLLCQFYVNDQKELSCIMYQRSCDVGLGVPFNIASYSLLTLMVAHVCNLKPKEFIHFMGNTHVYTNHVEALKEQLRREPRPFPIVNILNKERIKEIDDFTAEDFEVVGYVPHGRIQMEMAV

Structure (SMILES): Cc1c(Sc2ccc3ccccc3c2)[nH]c2nc(N)nc(N)c12 [Compound 90, 2,4-Diamino-5-methyl-6-(2-naphthylthio)pyrrolo[2,3-d]pyrimidine]
- selectivity ratio rl/tg (tgDHFR): 5

- solubility properties (Solubility): poor solubility properties
Structure (SMILES): Cc1cccc(C)c1Sc1[nH]c2nc(N)nc(N)c2c1C [Compound 91, 2,4-Diamino-5-methyl-6-(2′,6′-dimethylphenylthio)pyrrolo[2,3-d]pyrimidine]
- Mean counts of T. gondii per 1000x field in peritoneal harvest (T. gondii; [1]): 12.5 counts per 1000x field
- Median counts of T. gondii per 1000x field in peritoneal harvest (T. gondii; [1]): 7.0 counts per 1000x field
- gross toxicity in treated mice (T. gondii; mouse, in vivo, ip, 50 mg/kg/day): no gross evidence of toxicity
- reduction of the median counts per 1000x field versus control (T. gondii; second study, i.p. 50 mg/kg/day): more than two-fold
- Mean counts of T. gondii per 1000x field in peritoneal harvest (T. gondii; [2]): 8.9 counts per 1000x field
- Median counts of T. gondii per 1000x field in peritoneal harvest (T. gondii; [2]): 5.0 counts per 1000x field

- solubility properties (Solubility): more soluble
Structure (SMILES): Cc1cccc(C)c1Sc1[nH]c2nc(N)nc(N)c2c1C.Cl [Compound 95, 2,4-Diamino-5-methyl-6-(2′,6′-dimethylphenylthio)pyrrolo[2,3-d]pyrimidine hydrochloride salt]
- Mean counts of T. gondii per 1000x field in peritoneal harvest (T. gondii; [2]): 2.4 counts per 1000x field
- Median counts of T. gondii per 1000x field in peritoneal harvest (T. gondii; [2]): 1.0 counts per 1000x field
